# From ChEMBL document CHEMBL3769400, “Synthesis of minoxidil conjugates and their evaluation as HL-60 differentiation agents” (Bioorg Med Chem Lett, 2016)
# The source made the active and inactive calls. No cut-off for these calls is given here.
# Legend:
# [1] = Induction of cell differentiation in human HL60 cells by NBT/MTT assay; type: functional, cell-based; details: HL-60
# HL-60 [2] = experiment: Induction of cell differentiation in human HL60 cells assessed as increase in differentiation index at 10 uM measured after 3 days by NBT/MTT assay; type: functional, cell-based
# HL-60 [3] = experiment: Induction of cell differentiation in human HL60 cells assessed as increase in differentiation index at 10 uM measured after 5 days by NBT/MTT assay; type: functional, cell-based
# PBMC = experiment: Cytotoxicity against human PBMC cells assessed as cell viability by MTT assay; type: cell-based
# HL-60 [4] = experiment: Induction of cell differentiation in human HL60 assessed as reduction in cell number after 3 days at 10 uM by leishmans staining based microscopic analysis; type: functional
# HL-60 [5] = experiment: Induction of cell differentiation in human HL60 cells assessed as condensation of nuclear chromatin after 3 days at 10 uM by leishmans staining based microscopic analysis; type: functional
# HL-60 [6] = experiment: Induction of cell differentiation in human HL60 cells assessed as irregularity of nuclear and cytoplasmic shape after 3 days at 10 uM by leishmans staining based microscopic analysis; type: functional
# HL-60 [7] = experiment: Induction of cell differentiation in human HL60 at 10 uM after 3 days by leishmans staining based microscopic analysis; type: functional
# HL-60 [8] = experiment: Induction of cell differentiation in human HL60 cells at 0.1 to 10 uM measured after 3 days by NBT/MTT assay; type: functional, cell-based
# HL-60 [9] = experiment: Induction of cell differentiation in human HL60 cells at 0.1 to 10 uM measured after 5 days by NBT/MTT assay; type: functional, cell-based
# HL-60 [10] = experiment: Induction of cell differentiation in human HL60 cells at 10 uM co-administered with MDA measured after 3 days by NBT/MTT assay; type: functional, cell-based
# HL-60 [11] = experiment: Induction of cell differentiation in human HL60 cells at 10 uM co-administered with DAF measured after 3 days by NBT/MTT assay; type: functional, cell-based
SMILES,IC50 [1] [µM],Activity (HL-60 [2]),Activity (PBMC),also measured
Nc1nc(N2CCCCC2)cc(NC(=O)NCc2ccccc2)[n+]1[O-],> 10,,,
Nc1ccc2c(c1)Cc1cc(N)ccc1-2,,inactive,,
NCCCNCCCCNCCCNC(=O)Nc1cc(N2CCCCC2)nc(N)[n+]1[O-].O=C(O)C(F)(F)F.O=C(O)C(F)(F)F.O=C(O)C(F)(F)F,3.02,Active,Toxic,Activity (HL-60 [3]): Active
Nc1ccc(Cc2ccc(NC(=O)Nc3cc(N4CCCCC4)nc(N)[n+]3[O-])cc2)cc1,3.02,Active,Toxic,Activity (HL-60 [3]): Active; Activity (HL-60 [4]): Active; Activity (HL-60 [5]): Active; Activity (HL-60 [6]): Active
CCCCCCCCCCCCCC(=O)O[C@@H]1[C@@H](C)[C@@]2(O)[C@@H](C=C(CO)C[C@]3(O)C(=O)C(C)=C[C@@H]23)[C@@H]2C(C)(C)[C@]12OC(C)=O,,,,Activity (HL-60 [7]): inactive
Nc1ccc2c(c1)Cc1cc(NC(=O)Nc3cc(N4CCCCC4)nc(N)[n+]3[O-])ccc1-2,3.04,Active,Toxic,Activity (HL-60 [3]): Active; Activity (HL-60 [4]): Active; Activity (HL-60 [5]): Active; Activity (HL-60 [6]): Active
N#CCCNC(=O)Nc1cc(N2CCCCC2)nc(N)[n+]1[O-],> 10,,,
CCCCNC(=O)Nc1cc(N2CCCCC2)nc(N)[n+]1[O-],> 10,,,
NCCCCCCNC(=O)Nc1cc(N2CCCCC2)nc(N)[n+]1[O-].O=C(O)C(F)(F)F,3.3,,Toxic,Activity (HL-60 [8]): Active; Activity (HL-60 [9]): inactive; Activity (HL-60 [4]): Active; Activity (HL-60 [5]): Active; Activity (HL-60 [6]): Active
CC1=C(/C=C/C(C)=C/C=C/C(C)=C/C(=O)O)C(C)(C)CCC1,,,,Activity (HL-60 [8]): Active; Activity (HL-60 [9]): Active
Nc1nc(N2CCCCC2)cc(NC(=O)NC(c2ccccc2)c2ccccc2)[n+]1[O-],3.05,Active,Toxic,Activity (HL-60 [3]): Active
NCCCCNC(=O)Nc1cc(N2CCCCC2)nc(N)[n+]1[O-],> 10,,,
Nc1cc(N2CCCCC2)nc(N)[n+]1[O-] [MINOXIDIL],> 10,,,Activity (HL-60 [10]): inactive; Activity (HL-60 [7]): inactive; Activity (HL-60 [11]): inactive
Nc1ccc(Cc2ccc(N)cc2)cc1,,inactive,,Activity (HL-60 [7]): inactive
COc1ccc(C(NC(=O)Nc2cc(N3CCCCC3)nc(N)[n+]2[O-])c2ccc(OC)cc2)cc1,> 10,,,
